Reference: patent publication US10092526B2, “Compositions and methods for treating respiratory injury or disease” (University of Pittsburgh—Of the Commonwealth System of …, priority 2013, dated 2018)
In brackets after ≈: the same amount, converted by molar mass. Where two headings read alike, the source gives them in different places.

Experiments:
TNFα cytokine release = assay: LPS-induced TNFα cytokine release in PBMC (ELISA); format: cell-based; settings: LPS 50 ng/ml, 16 hours, TNFα release by ELISA
Description: Peripheral blood mononuclear cells (PBMC) (0.2 ml at 0.3×10^6/ml) were treated with lipopolysaccharide (LPS) (50 ng/ml) for 16 hours concurrently with each compound tested at different concentrations. TNFα cytokine release was monitored by ELISA. These concentrations were used to calculate the IC50.

U937 monocytes = assay: U937 monocyte cytotoxicity, Trypan blue staining; format: cell-based
Description: (§1) U937 monocytes (0.2 ml at 0.3 x 10^6/ml) were treated with each compound at different concentrations for 16 hours. The cells were then stained with Trypan blue to identify dead cells, and to calculate the LC50. Combined values were used to generate therapeutic indexes (TI)=LC50/IC50.

[1] = U937 monocyte cytotoxicity, Trypan blue staining; format: cell-based; settings: human
Description: as §1

IL1β = assay: IC50IL1β measurements (FIG. 1); format: cell-based
[2] = test system: Dexamethasone-induced muscle atrophy; assay: Dexamethasone induced muscle myopathy model (Example 8); format: in vivo, C57BL mice
Description: C57BL mice were given daily i.p. injection of 0.1 ml of vehicle or Dexamethasone (10 mg/kg/d) for 14 days. Some mice were also given BC-1261 (also referred to herein as compound 014) in drinking water with estimated dose of 0.5, 2 and 5 mg/kg/d. Mice were then sacrificed and (tibialis anterior)TA muscle were removed, photographed (A), weighted (C), processed for H&E staining (B) and protein immunoblotting (E).

IMQ induced psoriasis = IMQ induced psoriasis model (Example 7); format: in vivo, BALB/c mice
Excerpt: An objective scoring system was developed based on the clinical Psoriasis Area and Severity Index (PASI), except that for the mouse model the affected skin area is not taken into account in the overall score. Erythema and scaling were scored independently on a scale from 0 to 4: 0, none; 1, slight; 2, moderate; 3, marked; 4, very marked. The level of erythema was scored using a scoring table with red taints. At day 7, mice were euthanized and spleens were removed for weight measuring.
Female BALB/c mice at 8 to 11 wk of age received a daily topical dose of 62.5 mg of commercially available IMQ cream (5%) (Aldara; 3M Pharmaceuticals) on the shaved back and the right ear for 5 or 6 consecutive days, translating in a daily dose of 3.125 mg of the active compound. Control mice were treated similarly with a control vehicle cream (Vaseline Lanette cream; Fagron). BC-1261 (also referred to herein as compound 014) were either given in drinking water or applied topically daily. To score the severity of inflammation of the back skin, an objective scoring system was developed based on the clinical Psoriasis Area and Severity Index (PASI), except that for the mouse model the affected skin area is not taken into account in the overall score. Erythema and scaling were scored independently on a scale from 0 to 4: 0, none; 1, slight; 2, moderate; 3, marked; 4, very marked. The level of erythema was scored using a scoring table with red taints. At day 7, mice were euthanized and spleens were removed for weight measuring. Skin and ear sample were also collected for H&E staining and epidermis thickness were measured and graphed. n=5-10 per group, *p<0.05.

[3] = test system: lung transplant rejection; assay: Lung transplant acute rejection model (Example 9); format: in vivo, mouse; settings: 5 mg/kg/d i.p. 2 days then drinking water 5 mg/kg/d 5 days
Description: Left lung from BALB/C mouse was surgically removed and transplanted into C57/BL mouse. Mice were given vehicle or BC-1261 (5 mg/kg/d i.p. injection) for 2 days until fully recovered. After that, BC-1261 (also referred to herein as compound 014) was administered through drinking water (5 mg/kg/d) for additional 5 days. Mice were then sacrificed, and the transplanted lungs were removed for H&E staining.

[4] = test system: Pseudomonas aeruginosa strain PA103; assay: Pseudomonas induced pneumonia, Compound 014 (Example 5); format: in vivo, mice; settings: 30 μg or 150 μg IP
Description: Mice were administered either 30 μg or 150 μg of Compound 014 by IP injection, and these mice were then challenged with Pseudomonas aeruginosa strain PA103 (2.5×10^4 CFU/mouse, i.t.) for 18 hours. Mice were monitored on a FlexiVent to measure lung mechanics throughout the procedure. The mice were then sacrificed and lungs were lavaged with saline, harvested, and then homogenized. Lavage cells were processed with cytosin and stained with May-Grunwald and Geimsa, and H&E staining was performed on lung samples. Lavage protein, cell count, and cytokine secretion were measured. (n=4 mice/group, *P<0.05 versus PA103 versus Vehicle)

[5] = test system: cigarette smoke induced chronic lung inflammation; assay: Smoke induced chronic lung inflammation (Example 6); format: in vivo, mice; settings: cigarette smoke 5 weeks, single 100 ug dose i.p., 18 hours
Description: Mice were exposed to cigarette smoke for 5 weeks before a single 100 ug dose of Compound 014 was administered by i.p. injection. The mice were euthanized 18 hours later, and lungs were lavaged with saline, harvested, and then homogenized. Lavage protein, cell counts and cytokine secretion were measured. (n=3 mice/group, *P<0.05 versus control)

[6] = therapeutic index (TI)=LC50/IC50
[7] = U937 monocytes, 16 hours, Trypan blue dead cells, read-out: LC50
[8] = Dexamethasone 10 mg/kg/d i.p. 14 days
[9] = PA103, vs vehicle control infected mice, FIG. 9

## c1ccc(CNCCNCc2ccc(-c3ccccn3)cc2)nc1 [Compound 008]
TNFα cytokine release
  IC50: 1.5 µg/mL (≈ 4.71 µM)
U937 monocytes; [6]
  TI: 30
[1]; [7]
  CC50 at 16 h: 45 µg/mL (≈ 141 µM)

## c1csc(-c2ccc(CNCCNCc3ccc(-c4nccs4)cc3)cc2)n1 [Compound 011]
TNFα cytokine release
  IC50: 0.4 µg/mL (≈ 0.984 µM)
U937 monocytes; [6]
  TI: 21.3
[1]; [7]
  CC50 at 16 h: 8.5 µg/mL (≈ 20.9 µM)

## c1cc(N2CCCC2)ccc1CNCCCCNCc1ccc(N2CCCC2)cc1 [Compound 006]
TNFα cytokine release
  IC50: 1 µg/mL (≈ 2.46 µM)
U937 monocytes; [6]
  TI: 1
[1]; [7]
  CC50 at 16 h: 1 µg/mL (≈ 2.46 µM)

## Cc1cc(N2CCCC2)ccc1CNCCCCNCc1ccc(N2CCCC2)cc1C [Compound 020]
TNFα cytokine release
  IC50: 0.2 µg/mL (≈ 0.46 µM)
U937 monocytes; [6]
  TI: 10
[1]; [7]
  CC50 at 16 h: 2 µg/mL (≈ 4.6 µM)

## Cc1cc(CNCCCCNCc2ccc(N3CCCC3)c(C)c2)ccc1N1CCCC1 [Compound 019]
TNFα cytokine release
  IC50: 0.5 µg/mL (≈ 1.15 µM)
U937 monocytes; [6]
  TI: 2
[1]; [7]
  CC50 at 16 h: 1 µg/mL (≈ 2.3 µM)

## c1ccc(-c2ccc(CNCCCCNCc3ccc(-c4ccccn4)cc3)cc2)nc1 [Compound 010]
TNFα cytokine release
  IC50: 1.5 µg/mL (≈ 3.55 µM)
U937 monocytes; [6]
  TI: 14.7
[1]; [7]
  CC50 at 16 h: 22 µg/mL (≈ 52.1 µM)
IL1β
  IC50: 1.5 µg/mL (≈ 3.55 µM)

## c1ccc(CNCCNCc2ccccc2)cc1 [Benzathine, reference compound]
TNFα cytokine release
  IC50: 25 µg/mL (≈ 104 µM)
U937 monocytes; human, 16 h
  TI: 16
[1]
  CC50 at 16 h: 400 µg/mL (≈ 1660 µM)
IL1β
  IC50: 25 µg/mL (≈ 104 µM)

## c1csc(-c2ccc(CNCCNCc3ccc(-c4cccs4)cc3)cc2)c1 [Compound 012]
TNFα cytokine release
  IC50: 1.1 µg/mL (≈ 2.72 µM)
U937 monocytes; [6]
  TI: 1.6
[1]; [7]
  CC50 at 16 h: 1.8 µg/mL (≈ 4.45 µM)

## c1cc(N2CCCC2)ccc1CNCCCCCNCc1ccc(N2CCCC2)cc1 [Compound 017]
TNFα cytokine release
  IC50: 0.2 µg/mL (≈ 0.475 µM)
U937 monocytes; [6]
  TI: 20
[1]; [7]
  CC50 at 16 h: 4 µg/mL (≈ 9.51 µM)

## c1cc(N2CCCC2)ccc1CNCCCNCc1ccc(N2CCCC2)cc1 [Compound 007]
TNFα cytokine release
  IC50: 1.1 µg/mL (≈ 2.8 µM)
U937 monocytes; [6]
  TI: 2.9
[1]; [7]
  CC50 at 16 h: 3.2 µg/mL (≈ 8.15 µM)

## c1ccc(-c2ccc(CNCCNCc3ccc(-c4ccccc4)cc3)cc2)cc1 [Compound 015]
TNFα cytokine release
  IC50: 2 µg/mL (≈ 5.09 µM)
U937 monocytes; [6]
  TI: 1
[1]; [7]
  CC50 at 16 h: 2 µg/mL (≈ 5.09 µM)
IL1β
  IC50: 2 µg/mL (≈ 5.09 µM)

## c1cnn(-c2ccc(CNCCNCc3ccc(-n4cccn4)cc3)cc2)c1 [Compound 009]
TNFα cytokine release
  IC50: 1.4 µg/mL (≈ 3.76 µM)
U937 monocytes; [6]
  TI: 57
[1]; [7]
  CC50 at 16 h: 80 µg/mL (≈ 215 µM)

## c1cc(N2CCOCC2)ccc1CNCCNCc1ccc(N2CCOCC2)cc1 [Compound 001]
TNFα cytokine release
  IC50: 20 µg/mL (≈ 48.7 µM)
U937 monocytes; [6]
  TI: 13
[1]; [7]
  CC50 at 16 h: 260 µg/mL (≈ 633 µM)

## c1cn(-c2ccc(CNCCNCc3ccc(-n4ccnc4)cc3)cc2)cn1 [Compound 003]
TNFα cytokine release
  IC50: 0.7 µg/mL (≈ 1.88 µM)
U937 monocytes; [6]
  TI: 142
[1]; [7]
  CC50 at 16 h: 130 µg/mL (≈ 349 µM)

## c1cnc(-c2ccc(CNCCNCc3ccc(-c4ncccn4)cc3)cc2)nc1 [Compound 014]
[2]; [8]
  TRAF6 protein in TA muscle (immunoblotting): degrading up-regulated TRAF6 protein
  muscle wasting (cross sectional measurements, TA muscle H&E staining): prevented
[2]; drinking water 0.5, 2 and 5 mg/kg/d, Dexamethasone 10 mg/kg/d i.p. 14 days
  Dexamethasone-induced muscle atrophy: attenuates
[2]; even at 0.5 mg/kg/d in drinking water
  dexamethasone-induced tibialis anterior muscle loss: significantly ameliorates
IMQ induced psoriasis; IMQ model
  ear thickness: reduces
  gross appearance: reduces
IMQ induced psoriasis; IMQ model, day 7
  spleen weight: reduces
IMQ induced psoriasis; IMQ model, score based on PASI
  psoriasis index: reduces
IMQ induced psoriasis; in drinking water or applied topically daily, BALB/C mice, FIGS. 13-17
  IMQ induced psoriasis: effectively ameliorates
[3]
  neutrophilia infiltrates induced by lung transplant rejection: effectively ameliorates
[3]; vs vehicle group
  transplanted lung H&E staining, infiltrates: completely protected lung
TNFα cytokine release
  IC50: 0.4 µg/mL (≈ 1.01 µM)
U937 monocytes; [6]
  TI: 1025
[1]; [7]
  CC50 at 16 h: 410 µg/mL (≈ 1030 µM)
[4]; PA103 2.5×10^4 CFU/mouse i.t., 18 hours
  adverse effects of Pseudomonas on lung mechanics: significantly ameliorated
[4]; [9]
  lavage cell counts: reduced
  lavage protein concentration: reduced
[4]; PA103, vs vehicle control infected mice, FIG. 9C
  lavage pro-inflammatory cytokine levels: reduction
[4]; PA103, vs vehicle control mice, FIG. 11
  cell infiltrates (H&E staining): significantly reduced
[4]; PA103, vs vehicle control smears, FIG. 10
  neutrophils in May-Grunwald and Geimsa smears: significantly fewer neutrophils
IL1β
  IC50: 0.4 µg/mL (≈ 1.01 µM)
[5]; FIG. 12
  lavage cell counts: reduced
  lavage protein concentration: reduced
[5]; FIG. 12C
  lavage pro-inflammatory cytokine levels: reduction

## c1cnc(-c2ccc(CNCCCCNCc3ccc(-c4ncccn4)cc3)cc2)nc1 [Compound 016]
TNFα cytokine release
  IC50: 4 µg/mL (≈ 9.42 µM)
U937 monocytes; [6]
  TI: >25
[1]; [7]
  CC50 at 16 h: > 100 µg/mL

## c1coc(-c2ccc(CNCCNCc3ccc(-c4ccco4)cc3)cc2)c1 [Compound 013]
TNFα cytokine release
  IC50: 1.9 µg/mL (≈ 5.1 µM)
U937 monocytes; [6]
  TI: 2.8
[1]; [7]
  CC50 at 16 h: 5.5 µg/mL (≈ 14.8 µM)

## c1ccc(-c2ccc(CNCCNCc3ccc(-c4ccccn4)cc3)cc2)nc1 [Compound 005]
TNFα cytokine release
  IC50: 0.9 µg/mL (≈ 2.28 µM)
U937 monocytes; [6]
  TI: 96
IL1β
  IC50: 0.9 µg/mL (≈ 2.28 µM)

## c1cc(N2CCCC2)ccc1CNCCNCc1ccc(N2CCCC2)cc1 [Compound 002]
TNFα cytokine release
  IC50: 0.6 µg/mL (≈ 1.58 µM)
U937 monocytes; [6]
  TI: 11
[1]; [7]
  CC50 at 16 h: 7 µg/mL (≈ 18.5 µM)

## Fc1cc(CNCCCCNCc2ccc(N3CCCC3)c(F)c2)ccc1N1CCCC1 [Compound 018]
TNFα cytokine release
  IC50: 0.1 µg/mL (≈ 0.226 µM)
U937 monocytes; [6]
  TI: 4
[1]; [7]
  CC50 at 16 h: 0.4 µg/mL (≈ 0.904 µM)

## c1cc(N2CCCCC2)ccc1CNCCNCc1ccc(N2CCCCC2)cc1 [Compound 004]
TNFα cytokine release
  IC50: 0.8 µg/mL (≈ 1.97 µM)
U937 monocytes; [6]
  TI: 33
[1]; [7]
  CC50 at 16 h: 27 µg/mL (≈ 66.4 µM)
IL1β
  IC50: 0.8 µg/mL (≈ 1.97 µM)
